Like-named read-outs stand apart in the source and are kept apart here.
Experiments:
[1] = tested on: normal lymphocytes (PBL) from healthy donors stimulated with PHA and TPA; experiment: Cytotoxicity, XTT assay, normal lymphocytes (PBL); type: cell-based; settings: 24 hours; for IC50: Lymphocyte, XTT, PBL pre-incubated with PHA and TPA; for Cytotoxic effect on normal lymphocytes (FIG. 1): PBL, 0.005-0.5 mM
Method: Mononuclear cells were isolated from peripheral blood of healthy donors by ficoll-hypaque density gradient centrifugation. The mononuclear cells were allowed to adhere to plastic dishes to remove macrophages. The non-adherent peripheral blood lymphocytes (PBL) were pre-incubated with 0.8 μg/mL PHA and 5 ng/mL TPA for 24 hours and then used in further experiments.
(§1) Cell densities were as follows: Molt-4 (at 2.5×10^4 cells in 100 μl per well), CT26 (at 5×10^3 cells in 100 μl, per well), MCF7 (at 5×10^3 cells in 100 μL per well) and PBL (at 1.5×10^5 cells in 100 μl per well) seeded in 96-well plates. Adherent cells (CT26 and MCF7) were allowed to adhere over-night.
(§2) Jasmonate-derivatives were added at concentration ranging from 0.005-0.5 mM for 24 hours. Each experimental point was performed in triplicates. Untreated cells were used as control. […] Dilutions were performed in culture medium and ethanol so that the final concentration of ethanol in each well was 0.6%.
(§3) Optical density representing viable cells was determined using the XTT Cell Proliferation Kit assay (Biological industries, Beit-Haemek, Israel).
(§4) Percentage of Optical density is directly proportional to the number of living cells in culture. Cytotoxicity (%) was calculated in the following way: [(OD of control cells−OD of drug-treated cells)/OD of control cells]×100.
(§5) Mononuclear cells were isolated from peripheral blood of healthy donors and treated as described above. The non-adherent PBL were pre-incubated with PHA and TPA as described above. Molt-4 and PBL cells were seeded in 96-well plates as described above.
(§6) Each experimental point was performed in triplicates. Untreated cells were used as control. […] Optical density and percentage of Cytotoxicity were determined as described above.

[2] = tested on: CT26 murine colon carcinoma cell-line; experiment: Cytotoxicity, XTT Cell Proliferation Kit assay, CT26; type: cell-based; settings: Mus musculus, 24 hours, read-out: IC50 in CT-26
Method: as §1, §2, §3, §4

[3] = tested on: MCF7 human breast adenocarcinoma cell-line; experiment: Cytotoxicity, XTT Cell Proliferation Kit assay, MCF7; type: cell-based; settings: 24 hours, read-out: IC50 in MCF-7
Method: as §1, §2, §3, §4

[4] = tested on: Molt-4 human acute lymphoblastic leukemia cell-line; experiment: Cytotoxicity, XTT Cell Proliferation Kit assay, Molt-4; type: cell-based; settings: 24 hours; for IC50: XTT; for Cytotoxic effect on leukemic cells (FIG. 1): Molt-4, 0.005-0.5 mM
Method: as §1, §2, §3, §4, §5, §6

[5] = tested on: basal cell carcinoma cells (cell line TE 354.T); experiment: Proliferation assay using XTT reagent, basal cell carcinoma cells; type: cell-based; settings: three days, read-out: IC50 inhibition of proliferation of basal cell carcinoma cells
Method: (§7) The effect of methyl jasmonate and compound 9 and 9A on the proliferation of squamous cell carcinoma cells (cell line A431) and basal cell carcinoma cells (cell line TE 354.T) was determined.
(§8) Cells were treated with various concentrations of methyl jasmonate and the compounds 9 and 9A for three days followed by a proliferation assay using XTT reagent (sodium 2,3,-bis(2-methoxy-4-nitro-5-sulfophenyl)-5-[(phenylamino)-carbonyl]-2H-tetrazolium inner salt).

[6] = tested on: squamous cell carcinoma cells (cell line A431); experiment: Proliferation assay using XTT reagent, squamous cell carcinoma cells; type: cell-based; settings: A431, three days, read-out: IC50 inhibition of proliferation of squamous cell carcinoma cells
Method: as §7, §8

[7] = tested on: LXFA 1041 lung, non small, adeno carcinoma, md; experiment: Clonogenic assay (TCA), LXFA 1041; type: cell-based; settings: Homo sapiens, LXFA 1041, Adeno carcinoma, read-out: IC50 colony formation
Method: (§9) Cancer cells were taken directly from cancer patients, employing the Tumor-Colony-Assay: Solid human tumor xenografts growing subcutaneously in serial passages in thymus aplastic nude mice were removed and disaggregated to obtain isolated tumor cells. Viable cells were added to culture medium supplemented with agar and plated in 24-multiwell dishes. The test compound was applied in the cultures that were incubated at 37° C. for 6-20 days and monitored for colony growth using an inverted microscope. At the time of maximum colony formation, colonies were counted and 24 hours prior to evaluation, stained with a vital dye. Drug effects were expressed in terms of the percentage of colony formation, obtained by comparison of the mean number of colonies in the treated wells with the mean colony count of untreated controls. IC50 values, being the drug concentrations necessary to inhibit colony formation by 50%, were determined by plotting compound concentration versus relative colony count.

[8] = tested on: LXFA 629 lung, non small, adeno carcinoma, pd; experiment: Clonogenic assay (TCA), LXFA 629; type: cell-based; settings: Homo sapiens, LXFA 629, Adeno carcinoma, read-out: IC50 colony formation
Method: as §9

[9] = tested on: RXF 423 kidney hypernephroid adeno carcinoma; experiment: Clonogenic assay (TCA), RXF 423; type: cell-based; settings: Homo sapiens, RXF 423, Hypernephroid adeno carcinoma, read-out: IC50 colony formation
Method: as §9

[10] = tested on: LXFA 1012 lung, non small, adeno carcinoma, pd; experiment: Clonogenic assay (TCA), LXFA 1012; type: cell-based; settings: Homo sapiens, LXFA 1012, Adeno carcinoma, read-out: IC50 colony formation
Method: as §9

[11] = tested on: CXF 1299 colon adeno carcinoma; experiment: Clonogenic assay (TCA), CXF 1299; type: cell-based; settings: Homo sapiens, CXF 1299, Adeno carcinoma, read-out: IC50 colony formation
Method: as §9

[12] = tested on: MAXF 857 breast invasive ductal carcinoma; experiment: Clonogenic assay (TCA), MAXF 857; type: cell-based; settings: Homo sapiens, MAXF 857, Invasive ductal carcinoma, read-out: IC50 colony formation
Method: as §9

[13] = tested on: CT-26 colon carcinoma cells; experiment: ATP levels, CellTiter-Glo Luminescent Cell Viability Assay; type: cell-based, Murine
Method: CT-26 cells were exposed to compound 9 for 3 hours and ATP levels were measured using the CellTiter-Glot Luminescent Cell Viability Assay (Promega, Madison, Wis., U.S.A.). […] It thus appears that a drop in cellular energy levels may precipitate the cytotoxic effect of compound 9.

[14] = tested on: GXF 214 stomach adeno carcinoma, ud; experiment: Clonogenic assay (TCA), GXF 214; type: cell-based; settings: Homo sapiens, GXF 214, Adeno carcinoma, read-out: IC50 colony formation
Method: as §9

[15] = tested on: RXF 1220 kidney hypernephroma, pd; experiment: Clonogenic assay (TCA), RXF 1220; type: cell-based; settings: Homo sapiens, RXF 1220, Hypernephroma, read-out: IC50 colony formation
Method: as §9

[16] = tested on: LXFL 430 large cell lung carcinoma, ud; experiment: Clonogenic assay (TCA), LXFL 430; type: cell-based; settings: Homo sapiens, non small, read-out: IC50 colony formation
Method: as §9

[17] = tested on: CXF 280 colon adeno carcinoma, ud; experiment: Clonogenic assay (TCA), CXF 280; type: cell-based; settings: Homo sapiens, CXF 280, Adeno carcinoma, read-out: IC50 colony formation
Method: as §9

[18] = tested on: LXFA 749 lung, non small, adeno carcinoma, pd; experiment: Clonogenic assay (TCA), LXFA 749; type: cell-based; settings: Homo sapiens, LXFA 749, Adeno carcinoma, read-out: IC50 colony formation
Method: as §9

[19] = tested on: LXFS 573 small cell lung carcinoma; experiment: Clonogenic assay (TCA), LXFS 573; type: cell-based; settings: Homo sapiens, read-out: IC50 colony formation
Method: as §9

[20] = tested on: MAXF 1322 breast papillary adeno carcinoma, pd; experiment: Clonogenic assay (TCA), MAXF 1322; type: cell-based; settings: Homo sapiens, MAXF 1322, Papillary adeno carcinoma, read-out: IC50 colony formation
Method: as §9

[21] = tested on: B16F10 melanoma cells; experiment: Experimental metastasis of B16 melanoma cells to the lungs in vivo; parameters: species or system C57bl mice; settings: 10 mg/kg i.v. once daily, 5 days a week for 3 weeks; lungs weighed after 22 days
Method: The experiment was comprised of 3 groups of C57bl mice (12-15 weeks old, n=12), total of 36 all inoculated with B16F10 melanoma cells, 0.1 ml of B16F10 in PBS×1, inoculums of 7×10^5 cells per mouse. Group M1—non treated, Group M2—treated once daily, 5 days a week for 3 weeks with Compound 9 dissolved with surfactants (10 mg/kg, diluted 1:5 with Saline, i.v.), and Group M3—a positive control group treated with Paclitaxel once in 7 days (15 mg/kg, i.v.). After 22 days, mice were sacrificed and lungs were weighed. Lungs with metastases weigh more than normal lungs (which weigh about 200 mg), and a decrease in lung weight in comparison to control tumor-bearing untreated mice signifies an anti-metastatic effect.

[22] = tested on: lymphomas; settings: U.S. Pat. No. 6,469,061; cited from earlier work
[23] = tested on: cancer cells; settings: Fingrut et al., 2005; cited from earlier work

CC/C=C\CC1C(=O)CCC1CCOC(C)=O (centres unmarked) [Compound 2]
IC50 [1]: > 500 µM
IC50 [2]: > 500 µM
IC50 [3]: > 500 µM
IC50 ([4]; Homo sapiens, MOLT-4): 440 ± 109 µM

CCCCCC1C(=O)CCC1CCO[Si](C)(C)C(C)(C)C (centres unmarked) [Compound 6]
IC50 [1]: 90 ± 14 µM
IC50 [2]: 263 ± 212 µM
IC50 [3]: 236 ± 180 µM
IC50 ([4]; Homo sapiens, MOLT-4): 56 ± 11 µM

CCC1C(CC2C(=O)CCC2CC(=O)OC)C1(Cl)Cl (centres unmarked) [Compound 7]
IC50 [1]: 425 ± 21 µM
IC50 [2]: 393 ± 141 µM
IC50 [3]: 323 ± 75 µM
IC50 ([4]; Homo sapiens, MOLT-4): 125 ± 26 µM

CCC(Br)C(Br)CC1C(=O)CCC1CCO (centres unmarked) [Compound 8]
IC50 [1]: 60 ± 14 µM
IC50 [2]: 163 ± 42 µM
IC50 [3]: 120 ± 60 µM
IC50 ([4]; Homo sapiens, MOLT-4): 50 ± 28 µM

CCCCCC1C(=O)CCC1CC(=O)Oc1cccc2cccnc12 (centres unmarked) [Compound 9A]
IC50 [5]: 0.116 µM
IC50 [4]: 10 µM
IC50 [6]: 0.036 µM

CC/C=C\CC1C(=O)CCC1CC(=O)Oc1cccc2cccnc12 (centres unmarked) [Compound 9]
IC50 [7]: 1.5 µM
IC50 ([5]; 72 h): 0.049 µM
IC50 [1]: 200 ± 85 µM
Cytotoxic effect on normal lymphocytes (FIG. 1) [1]: without exerting a substantial effect on normal lymphocytes
IC50 [8]: 1.38 µM
IC50 [2]: 29 ± 21 µM
IC50 [9]: 1.69 µM
IC50 [10]: 1.32 µM
IC50 [11]: 1.12 µM
IC50 [12]: 1.55 µM
IC50 [3]: 60 ± 14 µM
Drop in cellular ATP levels (FIG. 2) ([13]; 3 hours exposure, 0.2 or 0.5 mM compound): induced a significant drop in cellular ATP levels
Effect of high glucose on the ATP drop (FIG. 2) ([13]; 3 hours, high (28 mM) versus low (2 mM) glucose): this effect was decreased in the presence of high glucose levels
IC50 [14]: 1.94 µM
IC50 [15]: 6.32 µM
IC50 ([4]; Homo sapiens, MOLT-4): 12 ± 9 µM
Cytotoxic effect on leukemic cells (FIG. 1) [4]: kill leukemic cells
IC50 ([6]; Homo sapiens, A-431, 72 h): 0.089 µM
IC50 [16]: < 1 µM
IC50 [17]: 5.44 µM
IC50 [18]: 1.7 µM
IC50 [19]: 1.93 µM
IC50 [20]: 1.55 µM
Suppression of lung metastasis (lung weight, FIG. 3) [21]: very effective in suppressing lung metastasis

CC/C=C\CC1C(=O)CCC1CC(=O)NC(CC(C)C)C(=O)OC (centres unmarked) [Compound 10]
IC50 [1]: > 500 µM
IC50 [2]: > 500 µM
IC50 ([4]; Homo sapiens, MOLT-4): 243 ± 39 µM

CC/C=C\CC1C(=O)CCC1CC(=O)OC1OC(CO)C(O)C(O)C1O (centres unmarked) [Compound 11]
IC50 [1]: 323 ± 211 µM
Cytotoxic effect on normal lymphocytes (FIG. 1) [1]: without exerting a substantial effect on normal lymphocytes
IC50 [2]: 237 ± 29 µM
IC50 [3]: 110 ± 20 µM
IC50 ([4]; Homo sapiens, MOLT-4): 79 ± 6 µM
Cytotoxic effect on leukemic cells (FIG. 1) [4]: kill leukemic cells

CC/C=C\CC1C(=O)CCC1CC(=O)OC (centres unmarked) [Methyl jasmonate, methyl jasmonate, reference compound]
IC50 ([5]; 72 h): 16 µM
IC50 ([6]; Homo sapiens, A-431, 72 h): 14 µM
Prevention of development of lymphomas in mice [22]: effective in preventing development of lymphomas in mice
Decrease in ATP levels in cancer cells [23]: can cause a decrease in ATP levels in cancer cells
